Holding throughout (assay type): cell-based, human
The test system of one test is cancer cell lines. Kind of test: Cell viability analysis (WST-1) on cancer cell lines. To be noted: drug 10 μM, 72 hours, WST-1; Table 3.
The subject of test [1] is HI650 (Lung Adenocarcinoma). Briefly: Cell viability analysis, lung cancer HI650. To be noted: Homo sapiens, NCI-H1650, 72 h.
Test [2] deals with A549 (Lung Adenocarcinoma). Briefly: Cell viability analysis, lung cancer A549. The conditions noted are these: Homo sapiens, A549, 72 h.
In test [3] the test system is AGS (Gastric Adenocarcinoma). Kind of test: Cell viability analysis, gastric cancer AGS. The conditions noted are these: Homo sapiens, 72 h.
Test [4] relates to MKN-45 (Gastric Adenocarcinoma). Briefly: Cell viability analysis, gastric cancer MKN-45. To be noted: Homo sapiens, MKN-45, 72 h.
In test [5] the test system is HepG2 (Hepatocellular Carcinoma). Briefly: Cell viability analysis, hepatic cancer HepG2. The conditions noted are these: Homo sapiens, HepG2, 72 h.
In test [6] the test system is LoVo (Colorectal Adenocarcinoma). Briefly: Cell viability analysis, colon cancer LoVo. To be noted: Homo sapiens, LoVo, 72 h, read-out: cell viability (survival rate), LoVo, drug 10 μM, 72 hours, WST-1, OD450 nm.
The subject of test [7] is A375 (Amelanotic Melanoma). Briefly: Cell viability analysis, skin cancer A375. The conditions noted are these: Homo sapiens, A-375, 72 h.
Test [8] relates to HeLa (Cervix Adenocarcinoma). Kind of test: Cell viability analysis, cervical cancer HeLa. To be noted: Homo sapiens, HeLa, 72 h.
Test [9] has as its system PC3 (p53−) (Prostate Adenocarcinoma). Kind of test: Cell viability analysis, prostate cancer PC3. The conditions noted are these: Homo sapiens, 72 h.
Test [10] deals with TSGH-8301 (Urinary Bladder Carcinoma). Kind of test: Cell viability analysis, bladder cancer TSGH-8301. To be noted: Homo sapiens, 72 h.
Test [11] deals with MCF7 (Mammary Gland, Adenocarcinoma). Kind of test: Cell viability analysis, breast cancer MCF7. The conditions noted are these: Homo sapiens, MCF7, 72 h.
The subject of test [12] is HL-60 (Acute Promyelocytic Leukemia). Kind of test: Cell viability analysis, leukemia HL-60. The conditions noted are these: Homo sapiens, HL-60, 72 h.
Where [13] appears, read: drug 10 μM, 72 hours, WST-1, OD450 nm, read-out: cell viability (survival rate), H1650.
The mark [14] stands for this setting: drug 10 μM, 72 hours, WST-1, OD450 nm, read-out: cell viability (survival rate), A549.
Where [15] appears, read: drug 10 μM, 72 hours, WST-1, OD450 nm, read-out: cell viability (survival rate), AGS.
[16] abbreviates: drug 10 μM, 72 hours, WST-1, OD450 nm, read-out: cell viability (survival rate), MKN-45.
[17] abbreviates: drug 10 μM, 72 hours, WST-1, OD450 nm, read-out: cell viability (survival rate), HepG2.
Setting [18] is: drug 10 μM, 72 hours, WST-1, OD450 nm, read-out: cell viability (survival rate), A375.
Where [19] appears, read: drug 10 μM, 72 hours, WST-1, OD450 nm, read-out: cell viability (survival rate), HeLa.
Where [20] appears, read: drug 10 μM, 72 hours, WST-1, OD450 nm, read-out: cell viability (survival rate), PC3.
Setting [21] is: drug 10 μM, 72 hours, WST-1, OD450 nm, read-out: cell viability (survival rate), TSGH.
Setting [22] is: drug 10 μM, 72 hours, WST-1, OD450 nm, read-out: cell viability (survival rate), MCF7.
[23] abbreviates: drug 10 μM, 72 hours, WST-1, OD450 nm, read-out: cell viability (survival rate), HL-60.
Setting [24] is: read-out: cell viability (survival rate), H1650, drug 10 μM, 72 hours, WST-1, OD450 nm.
Setting [25] is: read-out: cell viability (survival rate), A549, drug 10 μM, 72 hours, WST-1, OD450 nm.
[26] abbreviates: read-out: cell viability (survival rate), AGS, drug 10 μM, 72 hours, WST-1, OD450 nm.
Setting [27] is: read-out: cell viability (survival rate), MKN-45, drug 10 μM, 72 hours, WST-1, OD450 nm.
Setting [28] is: read-out: cell viability (survival rate), HepG2, drug 10 μM, 72 hours, WST-1, OD450 nm.
Where [29] appears, read: read-out: cell viability (survival rate), A375, drug 10 μM, 72 hours, WST-1, OD450 nm.
Setting [30] is: read-out: cell viability (survival rate), HeLa, drug 10 μM, 72 hours, WST-1, OD450 nm.
Where [31] appears, read: read-out: cell viability (survival rate), PC3, drug 10 μM, 72 hours, WST-1, OD450 nm.
Setting [32] is: read-out: cell viability (survival rate), TSGH, drug 10 μM, 72 hours, WST-1, OD450 nm.
[33] abbreviates: read-out: cell viability (survival rate), MCF7, drug 10 μM, 72 hours, WST-1, OD450 nm.
The mark [34] stands for this setting: read-out: cell viability (survival rate), HL-60, drug 10 μM, 72 hours, WST-1, OD450 nm.

Where a name gives a salt, the structure may show the parent alone. Read-outs that look alike come from different tables or passages of the source.

On to `N[C@@H](C(=O)N[C@@H]1C(=O)N2C(C(=O)O)=C(Cl)CS[C@H]12)c1ccccc1` [Cefaclor (Ceclor), Cefaclor], for which, in the test on cancer cell lines, the “inhibition effect on different cancer cell lines” value was “significant inhibition effect”. In addition, the viability at 10 µM in [1] (setting [13]) came to 62.3%; in test [2] (setting [14]), 61%; in test [3] (setting [15]), 41.9%; in test [4] (setting [16]) it was 97%; in [5] (setting [17]) it was 108%; in test [6], 88.2%. Further, the viability at 10 µM in [7] (setting [18]) came to 67.5%; in test [8] (setting [19]), 86.7%; in test [9] (setting [20]), 70.1%; in test [10] (setting [21]) it was 81.6%; in [11] (setting [22]) it was 90.6%; in test [12] (setting [23]), 112%.
As to `CC(C)[C@H](N)C(=O)OCCOCn1cnc2c(=O)[nH]c(N)nc21` [Valaciclovir HCl], the “inhibition effect on different cancer cell lines” value in the test with cancer cell lines is “significant inhibition effect”. In addition, the viability at 10 µM is 90.6% in test [1] (setting [13]); 126% in test [2] (setting [14]); 110% in test [3] (setting [15]); 91.6% in test [4] (setting [16]); 110% in test [5] (setting [17]); 97% in [6]. The viability at 10 µM in [7] (setting [18]) is 95.6%; in test [8] (setting [19]), 109%; in test [9] (setting [20]) it was 68.3%; in [10] (setting [21]), 83.9%; in [11] (setting [22]), 67.8%; in test [12] (setting [23]), 103%.
Take `O=C(O)CCNC(=O)c1ccccc1` [Betamipron]: the “inhibition effect on different cancer cell lines” value in the test on cancer cell lines is “significant inhibition effect”. In addition, the viability at 10 µM amounted to 72.8% in test [1] (setting [24]); 72.3% in test [2] (setting [25]); 75.2% in test [3] (setting [26]); 88.2% in test [4] (setting [27]); 90.9% in test [5] (setting [28]); 93.5% in test [6]. Also, the viability at 10 µM was 85.8% in test [7] (setting [29]); 75.9% in test [8] (setting [30]); 92.6% in test [9] (setting [31]); 85.4% in test [10] (setting [32]); 118% in [11] (setting [33]); 96.2% in test [12] (setting [34]).
Turning to `CC1(C)S[C@@H]2[C@H](NC(=O)[C@H](NC(=O)N3CCN(S(C)(=O)=O)C3=O)c3ccccc3)C(=O)N2[C@H]1C(=O)O` [Mezlocillin Sodium], the “inhibition effect on different cancer cell lines” value with cancer cell lines is reported as “significant inhibition effect”. In addition, the viability at 10 µM stood at 81% in test [1] (setting [24]); 78% in test [2] (setting [25]); 72.2% in [3] (setting [26]); 92.9% in test [4] (setting [27]); 95.1% in test [5] (setting [28]); 116% in test [6]. Also, the viability at 10 µM in [7] (setting [29]) worked out at 107%; in [8] (setting [30]) it was 111%; in test [9] (setting [31]) it was 97.8%; in test [10] (setting [32]), 91.9%; in test [11] (setting [33]) it was 107%; in [12] (setting [34]), 91.4%.
As to `CCC(C)(C)c1ccc(CC(C)CN2C[C@@H](C)O[C@@H](C)C2)cc1` (some centres unmarked) [Amorolfine Hydrochloride], in the test on cancer cell lines, the “inhibition effect on different cancer cell lines” value is on record as “significant inhibition effect”. For the same compound, the viability at 10 µM in test [1] (setting [24]) worked out at 79.6%; in test [2] (setting [25]), 104%; in test [3] (setting [26]), 94.4%; in test [4] (setting [27]) it was 65.1%; in test [5] (setting [28]), 91.6%; in test [6], 99.7%. Further, the viability at 10 µM in [7] (setting [29]) was 98.6%; in [8] (setting [30]) it was 84.6%; in test [9] (setting [31]), 104%; in test [10] (setting [32]), 88.5%; in test [11] (setting [33]), 104%; in test [12] (setting [34]), 104%.

For the origin of these results see patent US10105357B2, “Indication of antibiotic drugs for preparation of cancer inhibition pharmaceutical composition” (LAUNX BIOMEDICAL CO., LTD., priority 2014, dated 2018).
